Columns and labels:
BT-549 [1] = settings: 72 h
Procedure, shortened: (§1)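 Rows with a drug sensitivity score of zero were dropped, and EC50 was taken from the fitted percent-inhibition dose-response curve, censored at the highest concentration. Data were normalised on each plate to vehicle and a positive kill control and checked by Z'-factor. The assay seeded breast cancer cell lines in 20 µl onto 384-well plates pre-loaded with compound in 5 µl medium for 72 h, then added 2.5 µl CellTiter-Blue for 2 h at 37 °C and read fluorescence at 560/590 nm.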

CAL-120 [2] = settings: 72 h
Procedure, shortened: as §1

HCC1143 [3] = settings: 72 h
Procedure, shortened: as §1

HCC1599 [4] = settings: 72 h
Procedure, shortened: as §1

MDA-MB-436 [5] = settings: 72 h
Procedure, shortened: as §1

MFM-223 [6] = settings: 72 h
Procedure, shortened: as §1

BT-474 = test: normalised viability (% of control), CellTiter-Blue; higher = more viable cells (about 100 = DMSO control); settings: incubation time: 72 h
Procedure, shortened: (§2)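 The reported figure is normalised viability at a single listed concentration of the series. Breast cancer cell lines (20 µl suspension) went onto 384-well plates holding compound in 5 µl medium for 72 h. CellTiter-Blue (2.5 µl, 2 h, 37 °C) was read by fluorescence at 560/590 nm, and each plate was scaled to vehicle at 100 and a positive kill control at 0.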

BT-549 [7] = test: as above; settings: incubation time: 72 h
Procedure, shortened: as §2

CAL-120 [8] = test: as above; settings: incubation time: 72 h
Procedure, shortened: as §2

CAL-148 = test: as above; settings: incubation time: 72 h
Procedure, shortened: as §2

CAL-51 = test: as above; settings: incubation time: 72 h
Procedure, shortened: as §2

CAL-85-1 = test: as above; settings: incubation time: 72 h
Procedure, shortened: as §2

DU-4475 = test: as above; settings: incubation time: 72 h
Procedure, shortened: as §2

HCC1143 [9] = test: as above; settings: incubation time: 72 h
Procedure, shortened: as §2

HCC1599 [10] = test: as above; settings: incubation time: 72 h
Procedure, shortened: as §2

HCC1937 = test: as above; settings: incubation time: 72 h
Procedure, shortened: as §2

HDQ-P1 = test: as above; settings: incubation time: 72 h
Procedure, shortened: as §2

Hs578T = test: as above; settings: incubation time: 72 h
Procedure, shortened: as §2

MDA-MB-231 = test: as above; settings: incubation time: 72 h
Procedure, shortened: as §2

MDA-MB-436 [11] = test: as above; settings: incubation time: 72 h
Procedure, shortened: as §2

MDA-MB-453 = test: as above; settings: incubation time: 72 h
Procedure, shortened: as §2

MDA-MB-468 = test: as above; settings: incubation time: 72 h
Procedure, shortened: as §2

MFM-223 [12] = test: as above; settings: incubation time: 72 h
Procedure, shortened: as §2

SK-BR-3 = test: as above; settings: incubation time: 72 h
Procedure, shortened: as §2

COc1ccc(-c2cc3c(C)nc(N)nc3n([C@H]3CC[C@H](OCCO)CC3)c2=O)cn1
Settings	EC50, CellTiter-Blue viability [nM]
BT-549 [1]	196
CAL-120 [2]	193
HCC1143 [3]	418
HCC1599 [4]	121
MDA-MB-436 [5]	234
MFM-223 [6]	180

normalised viability [%]
Settings	3 nM	10 nM	30 nM	100 nM	1000 nM	10000 nM
BT-474	–	91.8	–	–	14.1	0.59
BT-549 [7]	–	86.3	–	–	19.1	6.84
CAL-51	99.7	–	89.1	59	–	–
CAL-85-1	102	–	89.7	84.5	–	–
CAL-120 [8]	–	107	–	–	21	11.3
CAL-148	87.6	–	93	78.6	–	–
DU-4475	109	–	96.7	89	–	–
HCC1143 [9]	–	111	–	–	30.4	15
HCC1599 [10]	–	115	–	–	35.1	28.2
HCC1937	–	68.4	–	–	28	30.2
HDQ-P1	76.7	–	81.6	39	–	–
Hs578T	–	96.1	–	–	17.9	3.2
MDA-MB-231	–	84.7	–	–	16.7	8.35
MDA-MB-436 [11]	–	103	–	–	15.8	7.22
MDA-MB-453	103	–	66.5	48.5	–	–
MDA-MB-468	–	92.7	–	–	21.5	6.53
MFM-223 [12]	–	92	–	–	16	7.1
SK-BR-3	–	82.6	–	–	10.6	6.34

Cn1cc(CNCC2CCN(c3ncc(C(=O)NO)cn3)CC2)c2ccccc21
Settings	EC50, CellTiter-Blue viability [nM]
BT-549 [1]	146
CAL-120 [2]	13.3
HCC1143 [3]	18.6
HCC1599 [4]	21.9
MDA-MB-436 [5]	279
MFM-223 [6]	33.1

normalised viability [%]
Settings	0.3 nM	1 nM	3 nM	10 nM	100 nM	1000 nM
BT-474	–	97.9	–	–	8.46	7.06
BT-549 [7]	–	78	–	–	75.1	12
CAL-51	116	–	115	97.2	–	–
CAL-85-1	90	–	79.9	65.1	–	–
CAL-120 [8]	–	88.7	–	–	12.5	3.89
CAL-148	95.6	–	89.2	53.9	–	–
DU-4475	88.5	–	93.7	60	–	–
HCC1143 [9]	–	83	–	–	23.6	11.1
HCC1599 [10]	–	101	–	–	28	14.5
HCC1937	–	69.2	–	–	31.8	14.7
HDQ-P1	104	–	88.9	88.6	–	–
Hs578T	–	128	–	–	39.3	5.1
MDA-MB-231	–	103	–	–	17.7	5.23
MDA-MB-436 [11]	–	94.5	–	–	80.6	17.7
MDA-MB-453	113	–	63.6	25.8	–	–
MDA-MB-468	–	107	–	–	38	14.5
MFM-223 [12]	–	88.9	–	–	28.5	8.06
SK-BR-3	–	86.2	–	–	8.01	2.99

O=C(NC[C@H](O)CO)c1ccncc1Nc1ccc(I)cc1F
Settings	EC50, CellTiter-Blue viability [nM]
CAL-120 [2]	421
HCC1143 [3]	7.91
HCC1599 [4]	756

normalised viability [%]
Settings	3 nM	10 nM	30 nM	100 nM	1000 nM	10000 nM
BT-474	–	107	–	–	104	114
BT-549 [7]	–	93.2	–	–	88.6	88
CAL-51	111	–	88.5	85.8	–	–
CAL-85-1	79.1	–	83.4	85.7	–	–
CAL-120 [8]	–	85.1	–	–	55.7	43.1
CAL-148	86	–	86.4	82.7	–	–
DU-4475	79.2	–	16.4	1.76	–	–
HCC1143 [9]	–	69.5	–	–	55.4	50.1
HCC1599 [10]	–	108	–	–	78	67.2
HCC1937	–	94.6	–	–	87.8	79.8
HDQ-P1	107	–	97.8	91.9	–	–
Hs578T	–	114	–	–	95.3	67.4
MDA-MB-231	–	75.5	–	–	31.7	31.4
MDA-MB-436 [11]	–	92.2	–	–	85.6	79.2
MDA-MB-453	99.6	–	89.2	90.9	–	–
MDA-MB-468	–	97.7	–	–	85.7	60.7
MFM-223 [12]	–	90.2	–	–	86	52.2
SK-BR-3	–	98.4	–	–	102	55.5

O=C(Nc1c[nH]nc1-c1nc2ccc(CN3CCOCC3)cc2[nH]1)NC1CC1 [AT9283]
Settings	EC50, CellTiter-Blue viability [nM]
BT-549 [1]	798
CAL-120 [2]	144
HCC1143 [3]	604
HCC1599 [4]	2120
MDA-MB-436 [5]	998
MFM-223 [6]	886

normalised viability [%]
Settings	3 nM	10 nM	30 nM	100 nM	1000 nM	10000 nM
BT-474	–	111	–	–	78.8	7.58
BT-549 [7]	–	95.8	–	–	46.7	4.31
CAL-51	107	–	97.8	56.3	–	–
CAL-85-1	89.8	–	72.8	78.6	–	–
CAL-120 [8]	–	84.9	–	–	22.1	6.61
CAL-148	80	–	69	31.8	–	–
DU-4475	91.2	–	94.1	43.9	–	–
HCC1143 [9]	–	77.8	–	–	51.8	13.9
HCC1599 [10]	–	102	–	–	72.5	11.9
HCC1937	–	106	–	–	43.4	15.5
HDQ-P1	113	–	97.3	81.2	–	–
Hs578T	–	124	–	–	33.9	1.79
MDA-MB-231	–	87.5	–	–	43.3	5.14
MDA-MB-436 [11]	–	97.4	–	–	64.2	29.6
MDA-MB-453	99.2	–	60.1	54.7	–	–
MDA-MB-468	–	108	–	–	43.1	6.32
MFM-223 [12]	–	93.4	–	–	57.4	19
SK-BR-3	–	93.9	–	–	40.3	6.9
